Target: T1, Y1 (Homo sapiens, UniProt P25929)
T1 sequence (P25929 1-384): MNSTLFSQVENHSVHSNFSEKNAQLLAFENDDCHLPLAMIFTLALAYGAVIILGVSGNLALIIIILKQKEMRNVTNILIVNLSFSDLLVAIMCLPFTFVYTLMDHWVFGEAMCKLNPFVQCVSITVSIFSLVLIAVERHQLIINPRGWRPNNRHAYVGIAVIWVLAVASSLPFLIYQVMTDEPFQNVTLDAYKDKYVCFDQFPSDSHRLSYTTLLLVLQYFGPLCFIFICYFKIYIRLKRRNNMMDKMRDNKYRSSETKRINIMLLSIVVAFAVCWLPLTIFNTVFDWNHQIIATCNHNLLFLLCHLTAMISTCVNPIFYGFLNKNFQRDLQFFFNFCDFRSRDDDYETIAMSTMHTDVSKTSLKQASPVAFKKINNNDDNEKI
Assay: Endogenous NPY response of host Bowes melanoma cells (low levels of Y1 responses)
Conditions: 10 uM; human Bowes melanoma cells (HMCB)

- block of the endogenous NPY response: completely blocks
Structure (SMILES): NC(N)=NCCC[C@@H](NC(=O)C(c1ccccc1)c1ccccc1)C(=O)NCc1ccc(O)cc1 [BIBP3226]
